Data from patent US9327059B2, “Steroid-containing sustained release intraocular implants and related methods” (Allergan, Inc., priority 2004, dated 2016).
Read-outs that look alike come from different tables or passages of the source. One block for each compound: values may come before it.

Experiments:
[1] = In vivo fluocinolone acetonide levels in rabbit eyes after intravitreal implant
Experimental: The in vivo study was conducted on four rabbits. The fluocinolone-containing implants were surgically implanted into the posterior segment (i.e., the vitreous) of the right eye (OD) and left eye (OS) of each rabbit. The aqueous humor (15-20 μL) and the vitreous humor (150-200 μL) were withdrawn for the first two rabbits, while the sampling for the remaining two rabbits was determined by a sampling schedule wherein the sampling days were days 7, 14, 21, 40, and 60, 90, and 120.

[2] = in vivo; cited from earlier work
[3] = Relative water solubility of the steroids; type: physicochemical

- fluocinolone acetonide level in anterior chamber / aqueous humor ([1]; implant configuration #29, any time point): not detected
- Fluocinolone (ng/mL) in vitreous humor, single eye ([1]; intravitreal implant configuration #29, day 40): 40.80 ng/mL
- concentration at 7 day ([1]; vitreous humor, intravitreal implant configuration #29, day 7): 95.9 ng/mL
- concentration at 14 day ([1]; vitreous humor, intravitreal implant configuration #29, day 14): 50.9 ng/mL
- concentration at 21 day ([1]; vitreous humor, intravitreal implant configuration #29, day 21): 45.7 ng/mL
- concentration at 40 day ([1]; vitreous humor, intravitreal implant configuration #29, day 40, read-out: Fluocinolone (ng/mL) in vitreous humor, Average): 42.4 ng/mL
- concentration at 40 day ([1]; vitreous humor, intravitreal implant configuration #29, day 40, read-out: Fluocinolone (ng/mL) in vitreous humor, single eye): 44 ng/mL
- concentration at 60 day ([1]; vitreous humor, intravitreal implant configuration #29, day 60): 50.6 ng/mL
- concentration at 90 day ([1]; vitreous humor, intravitreal implant configuration #29, day 90): 36.1 ng/mL
- concentration at 120 day ([1]; vitreous humor, intravitreal implant configuration #29, day 120): 28.1 ng/mL
SMILES: CC1(C)O[C@@H]2C[C@H]3[C@@H]4C[C@H](F)C5=CC(=O)C=C[C@]5(C)[C@@]4(F)[C@@H](O)C[C@]3(C)[C@]2(C(=O)CO)O1 [Fluocinolone acetonide, 1,4-pregnadien-6α, 9α-difluoro-11β, 16α,17,21-tetrol-3,20-dione 16,17-acetonide]

SMILES: CC(C)OC(=O)CCC/C=C\C[C@@H]1[C@@H](CC[C@@H](O)CCc2ccccc2)[C@H](O)C[C@@H]1O [latanoprost]
- human eyes with increase in brown pigment in the iris [2]: 5-15%

SMILES: CC1(C)O[C@@H]2C[C@H]3[C@@H]4CCC5=CC(=O)C=C[C@]5(C)[C@@]4(F)[C@@H](O)C[C@]3(C)[C@]2(C(=O)CO)O1 [triamcinalone acetonide]
- water solubility, times more soluble than beclomethasone dipropionate [3]: about 150 times
